Assay results reported in US20240360142A1, “Multitargeting Agents For The Potential Treatment of Dementia With Lewy Bodies, Parkinson's Disease, and Alzheimer Disease With Lewy Bodies” (Duquesne University of The Holy Spirit, priority 2023, published 2024).
Values after ≈ are worked out from the molar mass of the structure shown. Values joined by “and” are separate entries in the source; they are usually repeats but may differ in a detail not shown here. Equal values may be shown once. “Also recorded” adds a separate entry of the source. Read-outs that look alike come from different tables or passages of the source.

What was measured:
CSNK1A1 (CK1 alpha 1) = CSNK1A1 (CK1 alpha 1) (Homo sapiens, UniProt P48729); experiment: Kinase inhibition, CSNK1A1; type: biochemical
Source text: (§1) Total inhibition of these kinases would be detrimental to neuronal viability.

[1] = system: male CD-1 mice infused with preformed α-synuclein fibrils; experiment: In vivo model of limbic-centered Lewy body disease (fibril infusion in OB/AON, daily tablets for six weeks); parameters: species or system mouse
[2] = system: microtubules in HeLa cells; details: cited from earlier work
FYN = FYN (Homo sapiens, UniProt P06241); experiment: Kinase inhibition, FYN; type: biochemical
Source text: as §1

GSK3β = GSK3β (Homo sapiens, UniProt P49841); experiment: Kinase inhibition, GSK3β; type: biochemical
Source text: as §1

GRK6 = GRK6 (Homo sapiens, UniProt P43250); experiment: Kinase inhibition, GRK6; type: biochemical; details: ATP Km app 11.7 μM
Source text: as §1

LARK2 = LARK2 (Homo sapiens, UniProt Q5S007); experiment: Kinase inhibition, LARK2; type: biochemical; also: ATP Km app 70 µM
Source text: as §1

[3] = Protein Binding, Human Plasma; type: in vitro ADME; details: read-out: Protein Binding % Bound (converted)
[4] = molecular target: T1, tubulin purified from porcine brain (Sus scrofa, UniProt P02550+P02554); details: cited from earlier work
T1 construct: in vitro assembly of tubulin purified from porcine brain; from tissue; host or cells: porcine brain

PLK2 = PLK2 (Homo sapiens, UniProt Q9NYY3); experiment: Kinase inhibition, PLK2; type: biochemical; details: ATP Km app 29.6 μM
Source text: as §1

[5] = Metabolic Stability, Human; type: in vitro ADME; details: for half-life: read-out: Metabolic Stability T1/2
CSNK2A2 (CK2 alpha 2) = CSNK2A2 (CK2 alpha 2) (Homo sapiens, UniProt P19784); experiment: Kinase inhibition, CSNK2A2; type: biochemical; details: ATP Km app 46 μM
Source text: as §1

GRK5 = GRK5 (Homo sapiens, UniProt P34947); experiment: Kinase inhibition, GRK5; type: biochemical; details: ATP Km app 3 μM
Source text: as §1

[6] = Metabolic Stability, Mouse; type: in vitro ADME; details: for half-life: read-out: Metabolic Stability T1/2
[7] = system: βIII-tubulin+ structures in primary hippocampal neurons; experiment: Nocodazole shock treatment followed by cold methanol fixation, βIII-tubulin staining; type: cell-based, rat; details: AG161-47 8 μM; nocodazole 50 nM and 5 μM
Procedure: For cold methanol fixation, primary hippocampal cultures plated on glass slides were exposed to ice-cold methanol (−20° C.) for 15 minutes on DIV 4. […] After immunostaining, coverslips were applied using FluoroMount-G (0100-01, SouthernBiotech).
The microtubule destabilizer/depolymerizer and kinase inhibitor nocodazole blocks AG161-47 activity: We qualitatively compared AG161-47 with the established microtubule destabilizer/depolymerizer nocodazole (Baas & Black, 1990; Baas et al., 2016; Bates & Eastman, 2017; Kapellos et al., 2016; Koenigsknecht & Landreth, 2004; Kuhn, 1998; Mandrekar et al., 2009; Nakayama et al., 2012; Park et al., 2012), using a nocodazole shock treatment followed by cold methanol fixation in primary hippocampal cultures, as previously described (Ferreira et al., 2018; Warren et al., 2020). Primary hippocampal cultures were treated with vehicle or AG161-47 at 8 μM or nocodazole at 50 nM and 5 μM.

[8] = Brain Tissue Binding, Mouse; type: in vitro ADME; details: read-out: Brain Tissue Binding % Bound (converted)
[9] = Protein Binding, Mouse Plasma; type: in vitro ADME; details: read-out: Protein Binding % Bound (converted)
DYRK1A = DYRK1A (Homo sapiens, UniProt Q13627); experiment: Kinase inhibition, DYRK1A; type: biochemical; details: ATP Km app 99.7 μM
Source text: as §1

in vivo = experiment: in vivo; parameters: species or system male CD-1 mice; details: for clinical symptoms during pharmacokinetic work: mouse
Procedure: Briefly, each compound was administered through intravenous and oral routes, and plasma samplings were collected from 2 to 24 hours post-injection for analyses by high-performance liquid chromatography and mass spectrometry (Prominence (Degasser DGU-20A5R(C), Serial NO. L20705619752 IX; Liquid Chromatograph LC-30AD Serial NO. L20555611120 AE and L20555611116 AE; Communications Bus Module CBM-20A, Serial NO. L20235635001 CD, Auto SIL-20AC HT, Serial No. L20355305356 AE; Rack changer II, Serial No. L20585300757 SS; AB Sciex Triple Quan 5500 LC/MS/MS instrument (Serial NO. EF20711807)). A HALO 90A, C18 2.7 μm 2.1×50 mm USKL004340 column was used and the mobile phase was 5 or 95% acetonitrile in water with 0.1% formic acid (see Supplemental Material).

Solubility = type: physicochemical; details: simulated gastric fluid; pH 2.0
[10] = system: primary hippocampal cultures; experiment: Viability / toxicity in primary hippocampal cultures; type: cell-based
Source text: Thresholds were kept uniform across individual experiments.

ABL1 = ABL1 (Homo sapiens, UniProt P00519); experiment: Kinase inhibition, ABL1; type: biochemical
Source text: as §1

Permeability, MDC-MDR1 = type: in vitro ADME; details: MDCK-MDR1
[11] = system: α-tubulin (detyrosinated, tyrosinated, acetylated); experiment: Post-translational markers of microtubule stability in primary hippocampal cultures (immunoblotting); type: cell-based, rat; details: 5 nM nocodazole, in the presence of fibrils

Sequence of FYN (P06241 whole entry): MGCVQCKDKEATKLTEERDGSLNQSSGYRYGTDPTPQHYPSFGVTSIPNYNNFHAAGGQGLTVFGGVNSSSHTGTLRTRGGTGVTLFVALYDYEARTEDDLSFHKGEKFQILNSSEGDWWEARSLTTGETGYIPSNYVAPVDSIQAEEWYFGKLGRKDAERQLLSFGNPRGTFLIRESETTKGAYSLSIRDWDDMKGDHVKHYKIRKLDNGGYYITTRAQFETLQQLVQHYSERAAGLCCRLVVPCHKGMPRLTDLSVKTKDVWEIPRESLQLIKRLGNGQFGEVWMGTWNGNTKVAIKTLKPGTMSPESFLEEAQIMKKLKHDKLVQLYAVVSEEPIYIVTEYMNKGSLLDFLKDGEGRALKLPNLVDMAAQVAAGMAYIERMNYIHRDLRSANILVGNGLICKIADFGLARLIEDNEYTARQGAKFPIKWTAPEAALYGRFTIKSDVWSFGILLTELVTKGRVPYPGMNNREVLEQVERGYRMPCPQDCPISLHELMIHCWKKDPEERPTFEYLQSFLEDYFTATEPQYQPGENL
Sequence of CSNK1A1 (CK1 alpha 1) (P48729 whole entry): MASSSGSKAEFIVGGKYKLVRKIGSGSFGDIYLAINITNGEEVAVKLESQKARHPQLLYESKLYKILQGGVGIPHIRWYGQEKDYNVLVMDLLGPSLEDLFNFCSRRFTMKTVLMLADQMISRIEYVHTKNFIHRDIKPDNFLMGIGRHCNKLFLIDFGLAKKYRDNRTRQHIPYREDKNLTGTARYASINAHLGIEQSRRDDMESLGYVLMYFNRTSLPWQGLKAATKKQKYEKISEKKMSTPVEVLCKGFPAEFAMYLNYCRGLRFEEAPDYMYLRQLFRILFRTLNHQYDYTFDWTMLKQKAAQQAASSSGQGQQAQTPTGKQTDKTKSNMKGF
Sequence of ABL1 (P00519 whole entry): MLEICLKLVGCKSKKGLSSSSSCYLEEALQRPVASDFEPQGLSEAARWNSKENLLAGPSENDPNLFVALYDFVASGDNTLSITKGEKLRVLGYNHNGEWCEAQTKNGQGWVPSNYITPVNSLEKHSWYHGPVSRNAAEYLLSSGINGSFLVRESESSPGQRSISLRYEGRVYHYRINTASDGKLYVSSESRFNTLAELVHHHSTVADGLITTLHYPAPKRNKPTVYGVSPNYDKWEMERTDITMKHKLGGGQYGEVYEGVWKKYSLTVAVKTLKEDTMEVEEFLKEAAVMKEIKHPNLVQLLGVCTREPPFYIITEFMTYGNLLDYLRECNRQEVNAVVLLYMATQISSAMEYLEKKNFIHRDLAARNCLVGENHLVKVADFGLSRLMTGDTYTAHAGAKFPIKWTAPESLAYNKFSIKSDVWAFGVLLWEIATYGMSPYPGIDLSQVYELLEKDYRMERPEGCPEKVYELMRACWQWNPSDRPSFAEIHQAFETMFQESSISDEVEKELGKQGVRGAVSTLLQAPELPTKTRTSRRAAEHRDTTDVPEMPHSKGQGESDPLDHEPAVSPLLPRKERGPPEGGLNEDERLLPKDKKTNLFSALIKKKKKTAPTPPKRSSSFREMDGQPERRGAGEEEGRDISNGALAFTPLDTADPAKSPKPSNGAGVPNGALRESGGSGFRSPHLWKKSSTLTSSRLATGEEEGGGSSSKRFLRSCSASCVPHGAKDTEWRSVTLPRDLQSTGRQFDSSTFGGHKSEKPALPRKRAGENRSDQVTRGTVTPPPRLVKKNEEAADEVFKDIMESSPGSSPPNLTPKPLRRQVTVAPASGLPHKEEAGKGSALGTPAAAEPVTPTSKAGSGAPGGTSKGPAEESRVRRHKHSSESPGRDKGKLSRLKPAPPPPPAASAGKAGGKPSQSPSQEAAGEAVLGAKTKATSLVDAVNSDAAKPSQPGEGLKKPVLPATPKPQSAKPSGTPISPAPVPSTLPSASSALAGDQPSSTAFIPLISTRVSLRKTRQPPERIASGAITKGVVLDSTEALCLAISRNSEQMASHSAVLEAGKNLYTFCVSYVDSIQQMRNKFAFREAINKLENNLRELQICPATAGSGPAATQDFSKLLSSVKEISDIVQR
Sequence of GSK3β (P49841 whole entry): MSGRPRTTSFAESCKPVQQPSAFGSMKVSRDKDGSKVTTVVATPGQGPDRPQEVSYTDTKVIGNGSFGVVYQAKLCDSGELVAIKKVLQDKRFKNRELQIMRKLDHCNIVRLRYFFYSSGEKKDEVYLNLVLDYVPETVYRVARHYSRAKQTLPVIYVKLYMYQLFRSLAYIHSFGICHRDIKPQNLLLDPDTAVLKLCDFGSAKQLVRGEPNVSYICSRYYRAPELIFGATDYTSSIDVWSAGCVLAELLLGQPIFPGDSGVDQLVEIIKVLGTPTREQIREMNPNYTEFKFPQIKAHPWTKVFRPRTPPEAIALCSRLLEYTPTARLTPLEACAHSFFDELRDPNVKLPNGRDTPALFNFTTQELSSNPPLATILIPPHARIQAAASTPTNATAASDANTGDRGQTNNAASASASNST
Sequence of GRK5 (P34947 whole entry): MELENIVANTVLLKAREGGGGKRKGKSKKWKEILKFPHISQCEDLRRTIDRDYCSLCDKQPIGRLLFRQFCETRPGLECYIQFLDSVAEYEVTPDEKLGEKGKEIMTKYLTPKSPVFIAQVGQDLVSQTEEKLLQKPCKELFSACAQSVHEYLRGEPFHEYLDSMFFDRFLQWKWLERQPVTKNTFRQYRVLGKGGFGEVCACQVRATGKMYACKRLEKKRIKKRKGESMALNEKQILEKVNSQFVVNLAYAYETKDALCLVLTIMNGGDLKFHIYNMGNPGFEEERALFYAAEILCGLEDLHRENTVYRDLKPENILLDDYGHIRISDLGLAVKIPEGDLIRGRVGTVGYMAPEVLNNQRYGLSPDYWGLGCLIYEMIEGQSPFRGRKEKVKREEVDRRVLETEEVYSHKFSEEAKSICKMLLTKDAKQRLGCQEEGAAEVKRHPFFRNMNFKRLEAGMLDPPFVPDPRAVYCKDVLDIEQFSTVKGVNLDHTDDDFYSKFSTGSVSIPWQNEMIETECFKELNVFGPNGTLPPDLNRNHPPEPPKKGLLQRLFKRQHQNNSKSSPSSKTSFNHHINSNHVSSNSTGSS
Sequence of CSNK2A2 (CK2 alpha 2) (P19784 whole entry): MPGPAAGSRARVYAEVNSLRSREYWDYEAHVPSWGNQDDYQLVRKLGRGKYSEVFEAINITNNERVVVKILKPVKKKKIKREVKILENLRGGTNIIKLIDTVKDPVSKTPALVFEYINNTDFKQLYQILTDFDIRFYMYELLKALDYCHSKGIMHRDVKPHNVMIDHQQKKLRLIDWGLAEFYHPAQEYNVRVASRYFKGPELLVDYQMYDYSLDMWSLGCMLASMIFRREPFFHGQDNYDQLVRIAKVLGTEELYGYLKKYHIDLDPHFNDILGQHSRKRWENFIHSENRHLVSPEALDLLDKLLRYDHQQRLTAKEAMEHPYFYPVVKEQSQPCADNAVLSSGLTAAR
Sequence of GRK6 (P43250 whole entry): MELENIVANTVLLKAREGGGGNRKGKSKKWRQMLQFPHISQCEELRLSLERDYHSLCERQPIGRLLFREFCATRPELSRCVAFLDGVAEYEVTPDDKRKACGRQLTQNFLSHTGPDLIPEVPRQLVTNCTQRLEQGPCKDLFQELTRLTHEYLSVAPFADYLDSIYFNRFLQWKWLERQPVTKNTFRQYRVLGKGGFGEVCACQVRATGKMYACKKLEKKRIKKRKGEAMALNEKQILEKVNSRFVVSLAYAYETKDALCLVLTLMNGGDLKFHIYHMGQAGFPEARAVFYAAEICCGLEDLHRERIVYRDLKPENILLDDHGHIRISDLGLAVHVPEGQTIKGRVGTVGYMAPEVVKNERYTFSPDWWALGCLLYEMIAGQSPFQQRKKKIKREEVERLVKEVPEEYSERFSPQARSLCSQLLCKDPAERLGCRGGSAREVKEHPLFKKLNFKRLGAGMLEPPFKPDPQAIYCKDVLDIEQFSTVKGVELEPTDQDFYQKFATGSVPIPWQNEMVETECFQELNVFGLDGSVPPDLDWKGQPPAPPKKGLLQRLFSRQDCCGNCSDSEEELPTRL
Sequence of PLK2 (Q9NYY3 whole entry): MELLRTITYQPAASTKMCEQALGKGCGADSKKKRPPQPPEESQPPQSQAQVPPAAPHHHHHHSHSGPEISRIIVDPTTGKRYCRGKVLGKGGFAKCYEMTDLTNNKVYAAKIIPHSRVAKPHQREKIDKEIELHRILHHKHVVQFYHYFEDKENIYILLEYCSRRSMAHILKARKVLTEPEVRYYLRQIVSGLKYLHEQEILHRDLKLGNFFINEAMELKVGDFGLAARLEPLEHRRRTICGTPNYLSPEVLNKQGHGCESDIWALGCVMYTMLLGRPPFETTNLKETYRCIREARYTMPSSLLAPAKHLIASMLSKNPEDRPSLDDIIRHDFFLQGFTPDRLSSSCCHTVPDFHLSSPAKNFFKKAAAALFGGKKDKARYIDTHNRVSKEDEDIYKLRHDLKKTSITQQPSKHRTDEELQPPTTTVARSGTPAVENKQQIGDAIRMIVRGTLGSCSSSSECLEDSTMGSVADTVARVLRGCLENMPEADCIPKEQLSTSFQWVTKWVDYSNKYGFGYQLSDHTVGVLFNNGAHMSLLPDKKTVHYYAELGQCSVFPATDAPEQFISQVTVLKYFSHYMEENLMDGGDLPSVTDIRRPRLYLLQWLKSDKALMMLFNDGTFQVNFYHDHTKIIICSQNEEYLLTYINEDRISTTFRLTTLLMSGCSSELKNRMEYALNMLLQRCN

Brc1c(Br)c(Br)c2n[nH]nc2c1Br [TBB, reference compound]
IC50 (CSNK1A1 (CK1 alpha 1); representative value, ATP bin 5 μM, read-out: IC50 (nM) of Std inhibitor, CSNK1A1 (CK1 alpha 1)): 12600 nM

CN(c1ccccc1)c1nc(N)nc2[nH]c3cccc(Cl)c3c12 [AGN11]
correlation between insoluble α-synuclein and locomotor speed ([1]; 5 mg/kg): uncoupled the inverse correlation between insoluble α-synuclein and locomotor speed | hyperphosphorylation (pSer129) of insoluble α-synuclein, piriform cortex and amygdala ([1]; 5 mg/kg, six weeks, listed as AG161-47): modestly lowered; also recorded: reduced the hyperphosphorylation of insoluble α-synuclein | effect on Lewy-related pathology ([1]; 10 mg/kg, six weeks): too high to exert beneficial effects | bodyweight ([1]; daily tablets 5 or 10 mg/kg, six weeks, compared to placebo): No loss of bodyweight | acetylated, detyrosinated, or tyrosinated α-tubulin levels in whole-fraction OB/AON ([1]; immunoblotting, six weeks): virtually no net effect | α-synucleinopathic inclusion counts ([1]; piriform cortex sections, six weeks): does not affect α-synucleinopathic inclusion counts | locomotor activity in an open arena ([1]; six weeks after fibril infusions): reduced locomotor activity | other behavior measures (novel odor habituation, Y-maze, marble burying) ([1]; six weeks of daily tablets): no impact | microtubule effects in HeLa cells [2]: elicited both stabilization and relaxation of microtubules | IC50 (FYN; ATP Km app 85 μM): 888 nM | IC50 (GSK3β): 8.12 nM | IC50 (GRK6): 614 nM | IC50 (LARK2): 7.03 nM | fraction unbound [3]: 0.004 | in vitro assembly of porcine brain tubulin [4]: accelerated and amplified the net in vitro assembly of tubulin | IC50 (PLK2): > 370 nM | CLint scaled [5]: 45.6 mL/min/kg | half-life [5]: 38.1 min | IC50 (CSNK2A2 (CK2 alpha 2)): > 1110 nM | IC50 (GRK5): > 1110 nM | CLint scaled [6]: 602 mL/min/kg | half-life [6]: 10.1 min | appearance of βIII-tubulin+ structures after cold methanol fixation [7]: did not alter the appearance of βIII-tubulin^+ structures | fraction unbound [8]: 0.0008 | fraction unbound [9]: 0.0022 | IC50 (DYRK1A): 8.15 nM | Kp (in vivo; male, CD-1, mouse): 4.5 | Kp uu at 2 h (in vivo; male, CD-1, mouse): 4.4 | C0 (in vivo; male, CD-1, mouse, iv, 1 mg/kg): 529 ng/mL | CIobs (in vivo; male, CD-1, mouse, iv, 1 mg/kg): 120 mL/min/kg | Vss_obs (in vivo; male, CD-1, mouse, iv, 1 mg/kg): 2.41 L/kg | half-life (in vivo; male, CD-1, mouse, iv, 1 mg/kg): 19.4 min | AUC(0-t) (in vivo; male, CD-1, mouse, po, 1 mg/kg): 11 ng·h/mL | F (in vivo; male, CD-1, mouse, po, 1 mg/kg): 8.38% | Tmax (in vivo; male, CD-1, mouse, po, 1 mg/kg): 25 min | half-life (in vivo; male, CD-1, mouse, po, 1 mg/kg): 36 min | clinical symptoms during pharmacokinetic work (in vivo): no abnormal clinical symptoms were observed | IC50 (CSNK1A1 (CK1 alpha 1)): 30.5 nM | solubility (Solubility): 0.71 µM (≈ 0.23 µg/mL) | fragmented and condensed Hoechst+ nuclei ([10]; 8 μM, fibril-treated group): reduced fragmented and condensed Hoechst^+ nuclei | impact on fragmented/condensed cell counts with nocodazole co-treatment ([10]; fibril groups, nocodazole 1 and 5 nM): prevented by both concentrations of nocodazole | IC50 (ABL1; ATP Km app 12 μM): 7.96 nM | Papp A→B (Permeability, MDC-MDR1): 4.97 ×10⁻⁶ cm/s | Papp B→A (Permeability, MDC-MDR1): 4.16 ×10⁻⁶ cm/s

epothilone
toxicity to primary hippocampal cultures [10]: toxic to primary hippocampal cultures at nanomolar concentrations; also recorded: also found to be toxic

COC(=O)Nc1nc2ccc(C(=O)c3cccs3)cc2[nH]1 [nocodazole]
acetylated (stable) α-tubulin levels [11]: raised the levels of acetylated (stable) α-tubulin | appearance of βIII-tubulin+ structures after cold methanol fixation [7]: neurotoxicity and severe beading of axonal microtubules | number of viable Hoechst+ cells ([10]; fibrils, escalating AG161-47 up to 8 μM, nocodazole 1 and 5 nM, 10 days): no statistically significant changes | toxicity to primary hippocampal cultures [10]: also found to be toxic

COc1cc2ncnc(Nc3cccc(Cl)c3)c2cc1OC [Tyrphostin AG1478, reference compound]
IC50 (FYN; representative value, ATP bin 75 μM, read-out: IC50 (nM) of Std inhibitor, FYN): 5300 nM | IC50 (ABL1; representative value, ATP bin 10 μM, read-out: IC50 (nM) of Std inhibitor, ABL1): 326 nM

Cc1ccc(N(C)c2nc(N)nc3[nH]c4cccc(Cl)c4c23)cc1 [AGN5]
IC50 (FYN; ATP Km app 85 μM): 169 nM | IC50 (GSK3β): 3.12 nM | IC50 (GRK6): 64.3 nM | IC50 (LARK2): 20 nM | fraction unbound [3]: 0.0022 | in vitro assembly of porcine brain tubulin [4]: accelerate the temporal kinetics of porcine brain tubulin in vitro assembly | IC50 (PLK2): 16.7 nM | CLint scaled [5]: 44.7 mL/min/kg | half-life [5]: 38.9 min | IC50 (CSNK2A2 (CK2 alpha 2)): > 1110 nM | IC50 (GRK5): > 370 nM | CLint scaled [6]: 602 mL/min/kg | half-life [6]: 10.1 min | fraction unbound [8]: 0.0004 | fraction unbound [9]: < 0.0002 | IC50 (DYRK1A): 249 nM | Kp (in vivo; male, CD-1, mouse): 5.99 | Kp uu at 2 h (in vivo; male, CD-1, mouse): 6 | C0 (in vivo; male, CD-1, mouse, iv, 1 mg/kg): 811 ng/mL | CIobs (in vivo; male, CD-1, mouse, iv, 1 mg/kg): 49.5 mL/min/kg | Vss_obs (in vivo; male, CD-1, mouse, iv, 1 mg/kg): 3.24 L/kg | half-life (in vivo; male, CD-1, mouse, iv, 1 mg/kg): 93 min | AUC(0-t) (in vivo; male, CD-1, mouse, po, 1 mg/kg): 19.2 ng·h/mL | Cmax (in vivo; male, CD-1, mouse, po, 1 mg/kg): 14.7 ng/mL and 44 nM | F (in vivo; male, CD-1, mouse, po, 1 mg/kg): 6.35% | Tmax (in vivo; male, CD-1, mouse, po, 1 mg/kg): 30 min | half-life (in vivo; male, CD-1, mouse, po, 1 mg/kg): 46.8 min | clinical symptoms during pharmacokinetic work (in vivo): no abnormal clinical symptoms were observed | IC50 (CSNK1A1 (CK1 alpha 1)): 498 nM | solubility (Solubility): 1.75 µM (≈ 0.591 µg/mL) | IC50 (ABL1; ATP Km app 12 μM): 26.1 nM | Papp A→B (Permeability, MDC-MDR1): 1.74 ×10⁻⁶ cm/s | Papp B→A (Permeability, MDC-MDR1): 2.98 ×10⁻⁶ cm/s
